Results on 1 molecule are retold here after US20150072935A1, “COMPOSITION AND EXTERNAL APPLICATION FOR ACCELERATION OF MUSCLE DIFFERENTIATION AND IMPROVING OF MUSCLE MASS” (NEOPHARM CO., LTD., priority 2013, published 2015).

Numbered stars: 1 amine (or outer) side, 2 acyl side, 3 side chain; on linkers, the order of the positions; unused ones are H or OH. Square brackets hold non-standard residues; d marks the D form. Peptide text beside a SMILES is read from it. * marks the point of attachment. ξ: configuration not given here. Biotin = O=C1N[C@H]2[C@H](CS[C@H]2CCCCC(=O)*)N1; X1 = O=C(C(CC1=NCNC1)N[*:1])[*:2]; ξW = NC(Cc1c[nH]c2ccccc12)C(=O)O; ξF = NC(Cc1ccccc1)C(=O)O; ξK = NCCCCC(N)C(=O)O; ξA = CC(N)C(=O)O

Experiment [1] concerns C2C12 myoblast cells. As to the kind of experiment: Muscle differentiation promotion in C2C12 myoblast cells, western blotting of muscle proteins, concentration dependence. Format: cell-based. Particulars: differentiation medium with 2% horse serum, 0, 10 and 100 uM, after 3 days of differentiation induction, western blotting (FIG. 1). As to the method:
Undifferentiated C2C12 myoblast cells were cultured in a dish having a diameter of 100 mm using a Dulbecco's modified Eagle's medium (DMEM) with 10% fetal bovine serum (FBS). When the cells covered about 70% of an area, the cells were seeded in a 6-well dish at 8×10^5/well and cultured until the cells covered 90% of an area. Thereafter, muscle differentiation was induced using a differentiation medium with 2% horse serum. In this case, the cells were treated with a myotide (Chemical Formula 2, Incospharm Corp.) composition (0.1% DMSO in phosphate buffer saline) of the present invention at contents of 0, 10, and 100 uM. The differentiation medium was changed into a new differentiation medium containing […] every 24 hours, and after 3 days of differentiation induction, muscles cell lysis was performed using a cell lysis buffer, followed by western blotting. In order to confirm a degree of muscle differentiation, protein expression amounts of myosin heavy chain I, caveolin-3, and myogenin, which are representative protein of muscles, were observed. […] Therefore, the composition according to the present invention promoted muscle differentiation.
(In general: A western blot detects proteins with antibodies after separation by electrophoresis.)

Experiment [2] has as its system C2C12 myoblast cells. Briefly: Muscle differentiation promotion in C2C12 myoblast cells depending on differentiation time, western blotting. It counts as cell-based. Particulars: differentiation medium with 2% horse serum, 50 uM, after 1, 2 and 3 days of differentiation induction, western blotting (FIG. 2). As to the method: Undifferentiated C2C12 myoblast cells were cultured in a dish having a diameter of 100 mm using a DMEM with 10% fetal bovine serum (FBS). When the cells covered about 70% of an area, the cells were seeded in a 6-well dish at 8×10^5/well and cultured until the cells covered 90% of an area. Thereafter, muscle differentiation was induced using a differentiation medium with 2% horse serum. In this case, the cells were treated with a myotide (Chemical Formula 2, Incospharm Corp.) composition (0.1% DMSO in phosphate buffer saline) of the present invention at a content of 50 uM. After 1, 2, and 3 days of differentiation induction, cell lysis was performed using a lysis buffer, and a degree of muscle differentiation was confirmed by western blotting.

As for `CC(NC(=O)C(Cc1c[nH]c2ccccc12)NC(=O)C(CC1=NCNC1)NC(=O)CCCC[C@@H]1SC[C@@H]2NC(=O)N[C@@H]21)C(=O)NC(Cc1c[nH]c2ccccc12)C(=O)NC(Cc1ccccc1)C(=O)NC(CCCCN)C(N)=O` (some centres unmarked) [myotide] (Biotin-[X1][ξW][ξA][ξW][ξF][ξK]-NH2), the “expression of muscle proteins (myosin heavy chain I, caveolin-3, myogenin)” value in experiment [1] is “concentration-dependently increased”. The “expression of muscle proteins (myosin heavy chain I, caveolin-3, and myogenin)” value in experiment [2] is “increased”.
